Source: patent US9295676B2, “Mutation mimicking compounds that bind to the kinase domain of EGFR” (The Trustees Of The University of Pennsylvania, priority 2011, dated 2016)

Key:
NCI-H1666 cells = assay: Apoptosis by annexin V staining and FACS, wild-type EGFR cells; type: cell-based; details: wild-type EGFR cell line, 1 μM Tarceva® + 1 μM compound, 48 hrs
Experimental: Apoptosis was analyzed by FACS analysis after Annexin V staining and propidium iodide staining of DNA, and by Western blotting tracking caspase cascade activation. […] The cell lysates were subjected to Western blotting with anti-caspase-8, anti-caspase-3, anti-caspase-9 and anti-PARP antibodies to detect cleavage. NCI-H1650 and H3255 cells expressing mutant EGFR were used as a positive control in the apoptosis studies.

wild type human EGFR = target: T1, wild type human EGFR (Homo sapiens, UniProt P00533); assay: Western blot of EGFR phosphorylation in NE91 cells (FIG. 6A); type: cell-based
T1 construct: expressed in transfected cells; host or cells: NE91 (mouse fibroblasts)
Experimental: (§1) Total EGFR levels were measured as a control.
Studies measuring total EGFR phosphorylation and phosphorylation of different tyrosines, cell lines NE91, NCI-H1666 and A549 expressing wild type EGFR were treated with the target compounds for 3 hours followed by either induction with 50 ng/ml EGF for 15 min or no EGF induction. The cell lysates were subjected to the immunoprecipitation with anti-EGFR antibodies followed by Western blotting with anti-pY99 (total phospho-tyrosine), anti-pY845, anti-pY1045, anti-pY 1068 and/or anti-pY1173 antibodies.

NE91 cells = assay: Anchorage independent growth, soft agar colony formation; type: cell-based, mouse
Experimental: Studies on the effects of the target compounds on anchorage-independent growth of tumor cells used four different cell lines, A549, Calu-3, NE91 and T6-17, which have different levels of EGFR molecules on the cell surface. […] Cells were analyzed for their effects on anchorage-independent growth using soft agar assays described previously in Qian, et al., “Inhibition of p185neu kinase activity and cellular transformation of co-expression of a truncated neu protein,” Oncogene, 13: 2149-2157 (1996). The cells were plated in triplicate in 0.4% agar-HBBS and allowed to grow for 2 to 3 weeks. The cells will be fed with 0.5 ml media containing compounds on the day after plating and once a week thereafter. The colonies were stained with the HBSS solution containing 1 mg/ml of P-iodonitrotetrazolium violet (2-[4-iodophenyl]-3-[4-nitrophenyl]-5-phenyltetrazolium chloride). The number of the colonies formed were counted.

AsPC1 pancreatic tumors = assay: In vivo tumor growth in mice with AsPC1 pancreatic tumors; details: for effect on tumor growth, single agent: 15 mg/kg, FIG. 10
Text: FIG. 10 graphically represents the results of in vivo testing of EEO3 (A) and EEO4 (B) in mice with AsPC1 tumors.

L858R EGFR = target: T2, L858R EGFR (Homo sapiens, UniProt P00533, L858R); assay: Western blot of EGFR phosphorylation in mouse fibroblasts expressing L858R EGFR (FIG. 6B); type: cell-based
T2 construct: expressed in transfected cells; host or cells: mouse fibroblasts
Experimental: as §1
That is, while the binding affinity of the compounds tested in non-mutated EGFR defined by the cavity described above (and when Leu is present in the 858 position), when the single mutation is introduced such that Leu-858 is replaced by Arg-858—the binding affinity drops dramatically. […] Accordingly, MMCs may be characterized as having a higher binding constant (lower dissociation constant) for non-mutated vs. L858R mutated EGFR.

Structure (SMILES) | apoptotic activity of Tarceva® in the presence of the MMC (NCI-H1666 cells) | receptor phosphorylation (wild type human EGFR; compound alone, track 3) | Tarceva®-induced inhibition of EGFR phosphorylation (wild type human EGFR; in combination with Tarceva®, track 4) | total EGFR levels (wild type human EGFR; in the presence of the compound) | inhibitory effect on cell growth in combination with Tarceva® (NE91 cells; 0.25 μM, FIG. 8A) | anchorage independent cell growth, single agent (NE91 cells; compound alone, 0.25 μM, FIG. 8A) | enhancement of the inhibitory effect of Tarceva® on colony formation (NE91 cells; with a low concentration of Tarceva®, 1 nM, FIG. 8B) | effect on tumor growth, single agent (AsPC1 pancreatic tumors) | antitumor effect of the combination with Tarceva® (AsPC1 pancreatic tumors; Tarceva® with 15 mg/kg of EEO3, FIG. 10) | activation of EGFR phosphorylation (L858R EGFR; cell line expressing mutant EGFR, compound alone, FIG. 6B lanes 1 and 2) | enhancement of Tarceva®-induced inhibition of EGFR phosphorylation (L858R EGFR; mutant cell line, FIG. 6B lanes 7 and 8) | inhibitory effect on colony formation, single agent at low concentration (NE91 cells; low concentration, 1 nM, FIG. 8B)
Nc1ccccc1Sc1nc(-c2ccccc2N)ccc1[N+](=O)[O-] [EEN6A] | increased to the level observed with Tarceva® alone in the mutant cell line | – | – | – | – | – | – | – | – | – | – | –
CC1(C)Cc2cccc(C(=O)N3CCC(O)(c4ccc(Cl)cc4)CC3)c2O1 [EEO3] | – | enhancement of receptor phosphorylation | enhancement of Tarceva®-induced inhibition of EGFR phosphorylation | No changes in total EGFR levels | enhanced the inhibitory effect on cell growth | stimulated cell growth | even more dramatic | weak antitumor effect similar to Tarceva® alone | significant synergistic antitumor effect | does not activate EGFR phosphorylation | does not enhance | –
C#Cc1cccc(Nc2ncnc3cc(OCCOC)c(OCCOC)cc23)c1 [Tarceva®, erlotinib, reference compound] | – | – | – | – | – | – | – | only a modest effect on tumor growth | – | – | – | does not have any inhibitory effect by itself
